According to patent US6914045B2, “Glycopeptide antibiotics” (Wyeth Holdings Corporation, priority 2001, dated 2005):
In brackets after ≈: the same amount, converted by molar mass.

Tests used:
Assay in all cases: in vitro antibacterial evaluation, MIC by broth dilution
Format in all cases: cell-based
Escherichia coli = settings: 18 hours at 35° C.
Enterococcus sp. = settings: broth dilution, 18 hours at 35° C.
Procedure, shortened: (§1)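 MIC, the lowest antibiotic concentration preventing growth, was read across 64-0.06 μg/mL with 5×10^5 CFU/mL inoculum. Method followed NCCLS M7-A2 broth dilution using Mueller-Hinton II; Gram-positive strains covered recent methicillin-, penicillin- and/or vancomycin-resistant clinical isolates.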

Streptococcus sp. = settings: broth dilution, 18 hours at 35° C.
Procedure, shortened: as §1

Staphylococcus sp. = settings: broth dilution, 18 hours at 35° C.
Procedure, shortened: as §1

MIC Escherichia coli (ATCC 25922) (Escherichia coli): >128 µg/mL
MIC Escherichia coli (GC 4559) (Escherichia coli): 128 µg/mL (≈ 80.7 µM)
MIC Escherichia coli (GC 4560) (Escherichia coli): 4 µg/mL (≈ 2.52 µM)
MIC Enterococcus avium (GC 4558) (Enterococcus sp.): 8 µg/mL (≈ 5.05 µM)
MIC Enterococcus faecalis (ATCC 29212) (Enterococcus sp.): 32 µg/mL (≈ 20.2 µM)
MIC Enterococcus faecalis (GC 2242) (Enterococcus sp.): 16 µg/mL (≈ 10.1 µM)
MIC Enterococcus faecalis (GC 2691) (Enterococcus sp.): 32 µg/mL (≈ 20.2 µM)
MIC Enterococcus faecalis (GC 3059) (Enterococcus sp.): 32 µg/mL (≈ 20.2 µM)
MIC Enterococcus faecalis (GC 4552) (Enterococcus sp.): 32 µg/mL (≈ 20.2 µM)
MIC Enterococcus faecalis (GC 4553) (Enterococcus sp.): 16 µg/mL (≈ 10.1 µM)
MIC Enterococcus faecalis (GC 4554) (Enterococcus sp.): 32 µg/mL (≈ 20.2 µM)
MIC Enterococcus faecalis (GC 6189) (Enterococcus sp.): 32 µg/mL (≈ 20.2 µM)
MIC Enterococcus faecium (GC 2243) (Enterococcus sp.): 16 µg/mL (≈ 10.1 µM)
MIC Enterococcus faecium (GC 4556) (Enterococcus sp.): 32 µg/mL (≈ 20.2 µM)
MIC Enterococcus faecium (GC 4557) (Enterococcus sp.): 2 µg/mL (≈ 1.26 µM)
MIC Enterococcus faecalis (ATCC 29212) (Enterococcus sp.; inoculum 5×10^5 CFU/mL, strain ATCC 29212): 32 µg/mL (≈ 20.2 µM)
MIC Enterococcus faecalis (GC 2242) (Enterococcus sp.; inoculum 5×10^5 CFU/mL, strain GC 2242): 16 µg/mL (≈ 10.1 µM)
MIC Enterococcus faecium (GC 2243) (Enterococcus sp.; inoculum 5×10^5 CFU/mL, strain GC 2243): 16 µg/mL (≈ 10.1 µM)
MIC Enterococcus faecalis (GC 2691) (Enterococcus sp.; inoculum 5×10^5 CFU/mL, strain GC 2691): 32 µg/mL (≈ 20.2 µM)
MIC Enterococcus faecalis (GC 3059) (Enterococcus sp.; inoculum 5×10^5 CFU/mL, strain GC 3059): 32 µg/mL (≈ 20.2 µM)
MIC Enterococcus faecalis (GC 4552) (Enterococcus sp.; inoculum 5×10^5 CFU/mL, strain GC 4552): 32 µg/mL (≈ 20.2 µM)
MIC Enterococcus faecalis (GC 4553) (Enterococcus sp.; inoculum 5×10^5 CFU/mL, strain GC 4553): 16 µg/mL (≈ 10.1 µM)
MIC Enterococcus faecalis (GC 4554) (Enterococcus sp.; inoculum 5×10^5 CFU/mL, strain GC 4554): 32 µg/mL (≈ 20.2 µM)
MIC Enterococcus faecium (GC 4556) (Enterococcus sp.; inoculum 5×10^5 CFU/mL, strain GC 4556): 32 µg/mL (≈ 20.2 µM)
MIC Enterococcus faecium (GC 4557) (Enterococcus sp.; inoculum 5×10^5 CFU/mL, strain GC 4557): 2 µg/mL (≈ 1.26 µM)
MIC Enterococcus avium (GC 4558) (Enterococcus sp.; inoculum 5×10^5 CFU/mL, strain GC 4558): 8 µg/mL (≈ 5.05 µM)
MIC Enterococcus faecalis (GC 6189) (Enterococcus sp.; inoculum 5×10^5 CFU/mL, strain GC 6189): 32 µg/mL (≈ 20.2 µM)
MIC Streptococcus agalactiae (GC 4564) (Streptococcus sp.): 4 µg/mL (≈ 2.52 µM)
MIC Streptococcus pneumoniae (ATCC 6301) (Streptococcus sp.): 4 µg/mL (≈ 2.52 µM)
MIC Streptococcus pneumoniae (GC 1894) (Streptococcus sp.): 0.5 µg/mL (≈ 0.315 µM)
MIC Streptococcus pneumoniae (GC 4565) (Streptococcus sp.): 4 µg/mL (≈ 2.52 µM)
MIC Streptococcus pyogenes (GC 4563) (Streptococcus sp.): 2 µg/mL (≈ 1.26 µM)
MIC Streptococcus pneumoniae (ATCC 6301) (Streptococcus sp.; inoculum 5×10^5 CFU/mL, strain ATCC 6301): 4 µg/mL (≈ 2.52 µM)
MIC Streptococcus pneumoniae (GC 1894) (Streptococcus sp.; inoculum 5×10^5 CFU/mL, strain GC 1894): 0.5 µg/mL (≈ 0.315 µM)
MIC Streptococcus pyogenes (GC 4563) (Streptococcus sp.; inoculum 5×10^5 CFU/mL, strain GC 4563): 2 µg/mL (≈ 1.26 µM)
MIC Streptococcus agalactiae (GC 4564) (Streptococcus sp.; inoculum 5×10^5 CFU/mL, strain GC 4564): 4 µg/mL (≈ 2.52 µM)
MIC Streptococcus pneumoniae (GC 4565) (Streptococcus sp.; inoculum 5×10^5 CFU/mL, strain GC 4565): 4 µg/mL (≈ 2.52 µM)
MIC Coagulase Negative Staphylococcus (GC 4547) (Staphylococcus sp.): 8 µg/mL (≈ 5.05 µM)
MIC Coagulase Negative Staphylococcus (GC 4548) (Staphylococcus sp.): 8 µg/mL (≈ 5.05 µM)
MIC Coagulase Negative Staphylococcus (GC 4549) (Staphylococcus sp.): 16 µg/mL (≈ 10.1 µM)
MIC Coagulase Negative Staphylococcus (GC 4551) (Staphylococcus sp.): 8 µg/mL (≈ 5.05 µM)
MIC Coagulase Negative Staphylococcus (GC 6257) (Staphylococcus sp.): 2 µg/mL (≈ 1.26 µM)
MIC Staphylococcus aureus-SMITH (GC 4543) (Staphylococcus sp.): 8 µg/mL (≈ 5.05 µM)
MIC Staphylococcus aureus-SMITH (GC 4543) (Staphylococcus sp.; strain GC 4543): 8 µg/mL (≈ 5.05 µM)
MIC Coagulase Negative Staphylococcus (GC 4547) (Staphylococcus sp.; strain GC 4547): 8 µg/mL (≈ 5.05 µM)
MIC Coagulase Negative Staphylococcus (GC 4548) (Staphylococcus sp.; strain GC 4548): 8 µg/mL (≈ 5.05 µM)
MIC Coagulase Negative Staphylococcus (GC 4549) (Staphylococcus sp.; strain GC 4549): 16 µg/mL (≈ 10.1 µM)
MIC Coagulase Negative Staphylococcus (GC 4551) (Staphylococcus sp.; strain GC 4551): 8 µg/mL (≈ 5.05 µM)
MIC Coagulase Negative Staphylococcus (GC 6257) (Staphylococcus sp.; strain GC 6257): 2 µg/mL (≈ 1.26 µM)
MIC Staphylococcus aureus (ATCC 29213) (Staphylococcus sp.; strain ATCC 29213): 16 µg/mL (≈ 10.1 µM)
MIC Staphylococcus aureus (GC 1131) (Staphylococcus sp.; strain GC 1131): 16 µg/mL (≈ 10.1 µM)
MIC Staphylococcus aureus (GC 3051) (Staphylococcus sp.; strain GC 3051): 16 µg/mL (≈ 10.1 µM)
MIC Staphylococcus aureus (GC 3053) (Staphylococcus sp.; strain GC 3053): 16 µg/mL (≈ 10.1 µM)
MIC Staphylococcus aureus (GC 4541) (Staphylococcus sp.; strain GC 4541): 8 µg/mL (≈ 5.05 µM)
MIC Staphylococcus aureus (GC 4542) (Staphylococcus sp.; strain GC 4542): 16 µg/mL (≈ 10.1 µM)
MIC Staphylococcus aureus (GC 4544) (Staphylococcus sp.; strain GC 4544): 16 µg/mL (≈ 10.1 µM)
MIC Staphylococcus aureus (GC 4545) (Staphylococcus sp.; strain GC 4545): 16 µg/mL (≈ 10.1 µM)
SMILES: CC(c1ccccc1)C1NC(=O)CNC(=O)C(CO)NC(=O)C(C(O)C2CN(Cc3ccc(C(F)(F)F)cc3)C(=N)N2C2OC(CO)C(O)C(O)C2O)NC(=O)C(C(O)C2CNC(=N)N2)NC(=O)C(Cc2ccc(OC3OC(CO)C(OC4OC5COC6(OC5C(O)C4O)C4CC5CC(C4)CC6C5)C(O)C3O)cc2)NC1=O (centres unmarked) [Example 226]
MIC Staphylococcus haemolyticus (GC 4546) (Staphylococcus sp.): 8 µg/mL (≈ 5.05 µM)
MIC Staphylococcus haemolyticus (GC 4546) (Staphylococcus sp.; strain GC 4546): 8 µg/mL (≈ 5.05 µM)
